We go through 18 molecules from PubChem BioAssay (NCI).

Molecules are shown by their SMILES.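 Values below derive from 48-hour exposures of cells grown in 96-well plates, with endpoints linearly interpolated between the two concentrations bracketing the appropriate inhibition level. GI50 marks 50% less growth. TGI denotes the concentration required for complete inhibition of growth.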 Where only a bound is given, the exact number is not on record here.

What all share (assay): NCI-60 cell line screen, 48 h
Assay [1] has as its system OVCAR-5 ovarian.
Assay [2] deals with LOX IMVI melanoma.
Assay [3] has as its system NCI-H226 lung.
Assay [4] has as its system CCRF-CEM leukemia.
Assay [5] relates to SF-539 CNS.
The subject of assay [6] is MALME-3M melanoma.
For assay [7], the system named is HCC-2998 colon.
Assay [8] deals with OVCAR-4 ovarian.
In assay [9] the test system is UO-31 renal.
Assay [10] concerns UACC-62 melanoma.

For the molecule `O=C1C=C(O)C(=Cc2c(O)cc(O)cc2O)C(O)=C1`, the TGI in [1], in [2], in [3], in assay [4], in [5] and in [6] was above 100 µM throughout. The TGI in assay [7], in [8], in assay [9] and in assay [10] was above 100 µM in each case.
Consider `COc1cc(C2(C)SCCCS2)cc(OC)c1OC`, for which the TGI in [1], in assay [2], in [3], in [4], in [5] and in [6] was above 100 µM in each case. Also, the TGI in assay [7], in assay [8], in [9] and in assay [10] was above 100 µM each time.
As for `COc1cccc(Oc2ccccc2NC(=O)CNC(=O)c2cccc3ccccc23)c1`, the GI50 is 1.13 µM in [1]; 0.267 µM in [2]; 2.49 µM in [3]; 0.36 µM in assay [4]; 0.225 µM in assay [5]; 16.9 µM in assay [6]. Also, the GI50 in assay [7] is 1.25 µM; in assay [8], 0.77 µM; in assay [9], 1.8 µM; in assay [10], 0.209 µM. Further, the TGI in [1] was above 25 µM; in assay [2], above 25 µM; in [3], above 25 µM; in assay [4] it was above 25 µM; in [5], 1.07 µM; in assay [6], above 25 µM. In addition, the TGI in assay [7], in assay [8], in assay [9] and in assay [10] was above 25 µM throughout.
Take `COc1cc(C(=O)c2cc(C)c3[nH]c4ccc(O)cc4c3c2C)cc(OC)c1OC`: the GI50 in assay [1] is 0.0511 µM; in assay [2], below 0.0143 µM; in assay [3], 0.0943 µM; in assay [4] it was 0.0254 µM; in [5], below 0.0113 µM; in assay [6], 0.0347 µM. Also, the GI50 in assay [7] is 0.03 µM; in [8], 1.05 µM; in assay [9], 0.269 µM; in assay [10], below 0.01 µM. For the same molecule, the TGI in assay [1] is above 100 µM; in assay [2], above 100 µM; in assay [3], above 81.3 µM; in assay [4], above 100 µM; in [6], above 100 µM; in assay [7] it was above 37.9 µM. The TGI in assay [8], in assay [9] and in [10] was above 100 µM each time.
As for `Oc1cc(-n2cccn2)c(O)cc1-n1cccn1`, the TGI was 83.3 µM in assay [1]; 42.4 µM in assay [2]; above 89 µM in [3]; 19.6 µM in assay [4]; above 78.6 µM in assay [5]; above 78.1 µM in assay [6]. Moreover, the TGI in [7] was above 100 µM; in assay [8] it was 36.9 µM; in assay [9] it was 54.2 µM; in assay [10], 71.3 µM.
Turning to `c1cc(-c2cn3c(n2)SCC3)ccn1`, the TGI was above 100 µM in [1]; above 100 µM in [2]; above 100 µM in assay [3]; above 100 µM in [4]; above 65.2 µM in [5]; above 100 µM in assay [6]. For the same molecule, the TGI in assay [7], in [8], in [9] and in assay [10] was above 100 µM each time.
On to `CC1c2ccccc2CCN1c1ccc(CO)c(Cl)c1` (centres undefined), for which the GI50 in [1] is 0.0427 µM; in assay [2], 22.2 µM; in assay [3], 0.0491 µM; in assay [4], 30.9 µM; in assay [5], 19.1 µM; in [6], 22.7 µM. Moreover, the GI50 is 2.95 µM in assay [7], 0.049 µM in assay [8], 14.6 µM in assay [9] and 0.15 µM in assay [10]. In addition, the TGI is 0.187 µM in assay [1]; 49.8 µM in assay [2]; 0.228 µM in assay [3]; above 100 µM in assay [4]; 47.3 µM in [5]; 54.6 µM in assay [6]. Moreover, the TGI in assay [7] was found to be 17.6 µM; in assay [8] it was 2.7 µM; in assay [9], 65.3 µM; in assay [10], 14.5 µM.
Turning to `N/C(=N\OC(=O)c1ccccc1)C(Cc1ccccc1)C(=O)NOC(=O)c1ccccc1` (centres undefined), the GI50 in assay [1] was 9.1 µM; in [2], 1.46 µM; in assay [3], 3.51 µM; in assay [4] it was 2.18 µM; in assay [5] it was 1.84 µM; in assay [6] it was 3.47 µM. For the same molecule, the GI50 in assay [7] is 5.4 µM; in assay [8] it was 4.38 µM; in [9], 1.45 µM; in assay [10] it was 2.49 µM. The TGI in assay [1] was determined as 24.3 µM; in [2] it was 3.68 µM; in assay [3], 14 µM; in [4], 6.07 µM; in assay [5], 3.99 µM; in [6] it was 14.8 µM. In addition, the TGI in assay [7] turned out to be 19.7 µM; in assay [8] it was 27.3 µM; in assay [9], 3.07 µM; in [10], 7.53 µM.
Turning to `CC(=O)/C(=C\c1ccccc1O)C(=O)Nc1ccccc1C`, the TGI is 37.1 µM in [1]; 27.6 µM in assay [2]; 62.4 µM in assay [3]; 84.9 µM in assay [4]; 42.2 µM in assay [5]; 47.7 µM in [6]. Also, the TGI in [7] was 29.3 µM; in assay [8] it was above 100 µM; in [9] it was 31 µM; in assay [10], 68.7 µM.
Regarding `O=C(NNS(=O)(=O)c1ccc(Cl)cc1Cl)c1cccnc1Nc1ccc(Cl)cc1`, the GI50 was 26.2 µM in assay [1]; 21.1 µM in assay [2]; 23.9 µM in assay [3]; 6.62 µM in assay [4]; 19 µM in assay [5]; 11.1 µM in assay [6]. Moreover, the GI50 in assay [7] was 13.6 µM; in [8], 28.7 µM; in assay [9], 37.2 µM; in assay [10] it was 22 µM. Also, the TGI in assay [1] was 78.2 µM; in assay [2], 46.5 µM; in [3] it was 58.5 µM; in assay [4] it was above 100 µM; in [5] it was 44.5 µM; in [6], 34.9 µM. The TGI was 29 µM in assay [7], above 100 µM in assay [8], above 100 µM in assay [9] and 75.4 µM in assay [10].
In the case of `Cc1ccccc1-n1c(N)c(-c2nc3ccccc3[nH]2)sc1=S`, the TGI is above 100 µM in [1]; 52.6 µM in assay [2]; 74.4 µM in assay [3]; above 100 µM in assay [4]; 41.1 µM in assay [5]; 45.1 µM in assay [6]. Besides, the TGI is 34.8 µM in [7], 78.3 µM in assay [8], 45.6 µM in [9] and 37.1 µM in assay [10].
As to `COc1cc2c(cc1F)C(c1ccccc1Cl)=Nc1c(n[nH]c1C)N2`, the GI50 in assay [1] was 6.76 µM; in assay [2], 0.94 µM; in assay [3], 0.532 µM; in assay [4], 0.982 µM; in assay [5] it was 0.389 µM; in assay [6], 18 µM. The GI50 in [7] was 11.3 µM; in assay [8], 5.63 µM; in assay [9], 0.84 µM; in assay [10], 0.995 µM. For the same molecule, the TGI in assay [1] was 22.8 µM; in assay [2] it was 13.1 µM; in assay [3], 16.3 µM; in assay [4] it was above 100 µM; in assay [5], 2.39 µM; in [6] it was 32.7 µM. The TGI in assay [7] stood at 24.1 µM; in assay [8] it was 28.6 µM; in assay [9], 6.25 µM; in [10], 17.2 µM.
As for `O=Cc1ccc2c(c1I)OCO2`, the TGI in [1], in assay [2], in assay [3], in [4], in assay [5] and in assay [6] was above 100 µM in each case. Besides, the TGI in [7], in assay [8], in assay [9] and in assay [10] was above 100 µM throughout.
As for `CC1C=CC(OC(=O)C(C)(O)CCC(O)(C(=O)OC2CC(O)C(C(C)C)CC2(C)O)C(C)C)(C(C)C)CC1` (centres undefined), the GI50 in assay [1] is 0.665 µM; in assay [2], 0.0734 µM; in assay [3] it was 0.716 µM; in assay [4], 0.244 µM; in assay [5], 0.685 µM; in assay [6], 0.709 µM. In addition, the GI50 in assay [7] is 2.7 µM; in assay [8], 0.746 µM; in assay [9], 0.329 µM; in assay [10] it was 0.511 µM. For the same molecule, the TGI in [1] came to 1.35 µM; in assay [2], 0.142 µM; in assay [3] it was 2.48 µM; in assay [4], 0.901 µM; in assay [5] it was 1.35 µM; in assay [6], 1.45 µM. The TGI in [7] is 8.91 µM; in assay [8], 1.71 µM; in [9], 1.02 µM; in assay [10], 2.79 µM.
For `CCc1c(C)nc2sc3c(N)ncnc3c2c1C`, the GI50 in assay [1], in assay [2], in [3], in assay [4], in assay [5] and in assay [6] was above 25 µM in each case. The GI50 in [7], in assay [8], in assay [9] and in assay [10] was above 25 µM each time. The TGI in [1], in assay [2], in [3], in assay [4], in [5] and in [6] was above 25 µM in each case. For the same molecule, the TGI in [7], in assay [8], in [9] and in [10] was above 25 µM in each case.
As for `COc1ccc(Nc2ccnc(N3CCN(c4ccnc5cc(Cl)ccc45)CC3)n2)cc1`, the GI50 in assay [1] was 2.15 µM; in [2] it was 0.884 µM; in [3] it was 1.41 µM; in assay [4], 1.74 µM; in [5], 0.968 µM; in assay [6], 1.11 µM. Moreover, the GI50 was 2.73 µM in [7], 1.34 µM in assay [8], 0.629 µM in assay [9] and 0.292 µM in assay [10]. The TGI is above 100 µM in assay [1]; 5.23 µM in [2]; 6.09 µM in assay [3]; above 34.2 µM in [4]; 3.26 µM in [5]; 4.65 µM in assay [6]. The TGI in assay [7] is above 55.4 µM; in [8], above 100 µM; in assay [9], 4.29 µM; in assay [10], 1.43 µM.
Regarding `N#CCN1C(=O)c2cc([N+](=O)[O-])cc3cc([N+](=O)[O-])cc(c23)C1=O`, the TGI in assay [1] is 36.1 µM; in [2], 18.8 µM; in [3], 49.9 µM; in assay [4], 17.7 µM; in assay [5], 31.8 µM; in assay [6], 28 µM. In addition, the TGI is 29.2 µM in assay [7], 28.4 µM in assay [8], 32 µM in [9] and 29.2 µM in [10].
As for `C[C@@H]1Cc2cc(O)ccc2[C@H]2CC[C@]3(C)/C(=C/COCCN(C)C)CC[C@H]3[C@H]12` (tested in a mixture with another compound), the GI50 is 0.251 µM in [1]; 0.187 µM in [2]; 0.744 µM in [3]; 0.159 µM in assay [4]; 0.176 µM in assay [5]; 0.324 µM in assay [6]. The GI50 was 0.448 µM in assay [7], 0.271 µM in assay [8], 0.221 µM in [9] and 0.25 µM in assay [10]. The TGI in [1] was found to be 0.724 µM; in [2] it was 0.389 µM; in assay [3], 1.97 µM; in assay [4] it was 0.416 µM; in assay [5] it was 0.339 µM; in assay [6], 0.865 µM. The TGI in assay [7] turned out to be 1.65 µM; in assay [8], 0.771 µM; in [9], 0.514 µM; in assay [10], 0.625 µM.
